Values quoted from earlier work as cited in article PMC7468272 (Acta Pharmacologica Sinica, 2019).

Test system: CBP/p300

For `CO[C@H]1CC[C@H](n2c([C@@H]3CCCC(=O)N3c3ccc(F)c(F)c3)nc3cc(-c4c(C)noc4C)ccc32)CC1` [CCS1477], the “affinity for CBP/p300” value is given as “single-digit nanomolar affinity”.
